Laboratory results taken from patent publication US20220211684A1, “ANTIFUNGAL AGENTS FOR CANDIDA AURIS DECOLONIZATION” (Scynexis, Inc., priority 2019, published 2022).
In brackets after ≈: the same amount, converted by molar mass. Where two headings read alike, the source gives them in different places.

Experiments:
Candida auris [1] = assay: Guinea pig model of Candida auris skin infection, skin burden; assay type: in vivo, Guinea pigs
Description: (§1) Guinea pigs (n=5 per group) were randomized to receive 10 or 20 or 30 mg/kg of ibrexafungerp twice daily (BID) by gavage, or vehicle control. Animals received a single dose of prednisolone at 30 mg/kg, subcutaneously, one day prior and one and three days post infection to favor immuno-compromise of the animals and facilitate the development of Candida auris skin infection. A 100 μl cell suspension containing 10^8 blastospores of Candida auris was applied to an abraded area on the back of the animals. At Day 7, tissue biopsies were examined histologically, and tissue fungal burden was analyzed by colony counts from skin samples. PK bioanalysis of ibrexafungerp plasma concentrations was conducted following the final dose (Day 7).

in vivo = assay: in vivo; parameters: species or system Guinea pigs; conditions: guinea pig, po, 10 mg/kg
Description: as §1

clinical = assay: clinical; parameters: species or system humans; conditions: human, in vivo, po
Text: Print 2019 February PMID: 30478166). Such features are important for the treatment and prevention of fungal infections, as well as for achieving decolonization of susceptible fungal pathogens such as Candida auris.

Candida auris [2] = assay: MIC50 against 102 Candida auris clinical and surveillance isolates from an outbreak in New York; assay type: cell-based; conditions: 97 isolates with variable or multidrug resistance; for MIC50: Candidozyma auris
Text: Low MIC50 values for ibrexafungerp were found for 102 Candida auris clinical and surveillance isolates from an outbreak in New York. The isolates included C. auris with a variable resistance to antifungal drugs (resistance to one drug in one or two classes of antifungal drugs), multidrug-resistant isolates (resistance to two or more drugs between two classes of antifungal drugs), and pan-resistant isolates (resistance to two or more azoles, all tested echinocandins, and amphotericin B). For the 97 isolates that had variable or multidrug resistance to the other tested antifungal drugs (including fluconazole, voriconazole, itraconazole, isavuconazole, posaconazole, anidulafungin, caspofungin, micafungin, amphotericin B, and flucytosine), the ibrexafungerp MIC50 range was 0.06-0.5 μg/ml; the median and mode for ibrexafungerp MIC50 were each 0.5 μg/ml.

Candida auris [3] = conditions: 100 isolates of Candida auris; cited from earlier work
Candida spp. = conditions: previous animal models of systemic Candida spp. infection; cited from earlier work

- AUC(0-t) (in vivo): 2.8 µg·h/mL
- bioavailability (clinical): > 20%
- MIC50 range (Candida auris [2]): 0.06 to 0.5 mg/L
- MIC50 (Candida auris [2]; read-out: MIC50 median): 0.5 mg/L (≈ 0.685 µM)
- MIC50 (Candida auris [2]; read-out: MIC50 mode): 0.5 mg/L (≈ 0.685 µM)
Structure (SMILES): CC(C)[C@@H](C)[C@@]1(C)CC[C@]2(C)[C@H]3CC[C@@H]4[C@@]5(COC[C@@]4(C)[C@@H](OC[C@](C)(N)C(C)(C)C)[C@H](n4ncnc4-c4ccncc4)C5)C3=CC[C@@]2(C)[C@@H]1C(=O)O [ibrexafungerp, (1S,4aR,6aS,7R,8R,10aR,10bR,12aR,14R,15R)-15-[[(2R)-2-amino-2,3,3-trimethylbutyl]oxy]-8-[(1R)-1,2-dimethylpropyl]-14[5-(4-pyridinyl)-1H-1,2,4-triazol-1-yl]-1,6,6a,7,8,9,10,10a,10b,11,12,12a-dodecahydro-1,6a,8,10a-tetramethyl-4H-1,4a-propano-2H-phenanthro[1,2-c]pyran-7-carboxylic acid]
- Tissue burdens of Candida auris (skin, colony counts) (Candida auris [1]; 10, 20 or 30 mg/kg BID by gavage, Day 7, versus vehicle control): lower in all treatment groups versus in the vehicle control group
- fungal elements in biopsy samples (histology) (Candida auris [1]; Day 7 tissue biopsies, versus untreated control): No fungal elements were observed
- clinical scores (crusting, inflammation) (Candida auris [1]; among the active treatment groups): no significant differences
- MIC50 (Candida auris [3]): 0.5 micrograms/ml
- MIC90 (Candida auris [3]): 1 micrograms/ml
- MIC overall mode (Candida auris [3]): 1 micrograms/ml
- exposures needed to achieve efficacy (Candida spp.): ~11.2 µg·h/mL
